Measurements as given in patent publication US6710051B1, “Screening method” (Klaus Trier APS, priority 1997, dated 2004).
Marks after values point to notes of the source that are not given here.

Key:
sclera [1] = assay: Content of collagen specific amino acids in rabbit sclera after long term treatment (HPLC); format: in vivo; parameters: Hydroxylysine Decr. compared to the control / Hydroxyproline Inc. compared to the control / Proline Inc. compared to the control: concentration or dose not given beside the values; settings: for Hydroxylysine Decr. compared to the control / Hydroxylysine content / Hydroxyproline content / Proline content / Hydroxyproline Inc. compared to the control / Proline Inc. compared to the control: 3 months treatment; for Hydroxylysine content / Hydroxyproline content / Proline content: dried defatted weight
Excerpt: (§1) Test animal: Charles River Deutschland Chinchilla Bastard female rabbits.
(§2) Number of animals: 6 test animals and 6 control animals
(§3) Age: approximately 8 weeks at the commencement of the test.
(§4) Weight: 1.4-1.9 kg at the commencement of the test.
(§5) Cages: The animals live in identical cages made of stainless steel (Scanbur), length 1 m, depth 0.52 m, height 0.5 m.
(§6) Amount of food: Increasing from 75 g per day at the commencement of the test up to 130 g after three months.
(§7) Experimental drinking water 1 contained theophyllin in a dose equivalent of 27 mg increasing to 63 mg (added as theophyllin and ethylendiamin in a dose of 33 to 77 mg) daily.
(§8) Experimental drinking water 2 contained fluoxetine (Fontex, Lilly) in a dose equivalent of 2 mg increasing to 5 mg daily.
(§9) Experimental diet 3 was added 7-methylxanthine 500 mg per kg Stanrab standard diet equivalent of a daily 7-methylxanthine dose of […] per day.
(§10) Experimental diet 4 was added theobromine (3,7-dimethylxanthine) 500 mg per kg Stanrab standard diet equivalent of a daily theobromine dose of […] per day.
(§11) Experimental diet 5 was added acetazolamide 500 mg per kg Stanrab standard diet equivalent of a daily acetazolamide dose of […] per day.
(§12) Collection of sample: Sclera biopsies are taken for analysis for proteoglycane content, distribution between the individual glycosaminoglycanes and the content of collagen specific amino acids. Four tests from each animal: Two samples from the front, 5×10 mm along limbus (without cornea), and two samples from the back, punch 10 mm corresponding to the center of the retina. Furthermore, tests are taken for electron microscopy (EM) from two animals in each group.
Samples for analysis for content of collagen specific amino acids are frozen down immediately. The amino acid content is determined by HPLC-chromatography.
The dried tissue with constant weight is minced into very fine particles with a pair of scissors, approximately 20 per piece of tissue. The small flakes from each original piece of tissue ate divided into two equally sized portions, one of which is employed for hydrolysis and the other one is kept for reference. The constant dry weight of each portion is known.
From each resolubilized hydrolysate 3 aliquots of each 8 microliters and 3 aliquots of 40 μl are taken and transferred to separate polypropylene tubes in which 20 microliters of a solution of internal standard substances citrulline and 2 aminobutyric acid were added where the further method takes place.
The taken aliquots from hydrolysate are dried in a vacuum exsiccator at 35° C. over night and subsequently submitted to derivatization with phenylisothiocyanate.
The resulting phenylisothiocarbamates are transferred to the HPLC instrument for separation and quantification. A new set of calibration curves is established, 1 curve for each of the 19 amino acids, prior to the analysis of the samples from one investigation.
The concentration range of standard samples exceed the ranges of amino acid concentrations in the unknowns. Hydroxyproline and proline are quantitated from the 8 microliter aliquots, and hydroxylysine is quantitated from the 40 microliter aliquots.

sclera [2] = assay: Content of proteoglycanes in rabbit sclera after long term treatment (alcian blue method); format: in vivo; parameters: Proteoglycanes Decrease compared to the control, anterior sclera / Proteoglycanes Increase compared to the control, anterior sclera / Proteoglycanes Increase compared to the control, posterior sclera / Effect on proteoglycan content of posterior sclera in % compared to control: concentration or dose not given beside the values; settings: for content of proteoglycans in posterior sclera (in words): Example 4, versus control; for Effect on proteoglycan content of posterior sclera in % compared to control: rabbit, Examples 2 and 4; for Content of proteoglycanes, anterior sclera / Content of proteoglycanes, posterior sclera: wet weight
Protocol: as §1, §2, §3, §4
Lightness/Darkness cycle: 12/12 hours.
as §5
Food: Stanrab standard diet from Special Diet Services, P.O. Box 705, Witham Essex CM8 3AD, UK (further details, see Table A).
as §6, §7, §8
Experimental diet 2 was added 4.5 g L-cystine per kg Stanrab standard diet equivalent of a daily L-cystine dose of 338 mg increasing to 585 mg per day. With respect to the supplement of L-cystine, the normal intake per day of the standard diet is 218 mg increasing to 377 mg L-cystine.
as §9, §10, §11
Experimental diet 6 was added 4.5 g L-ornithine per kg Stanrab standard diet equivalent of a daily L-ornithine dose of 338 mg increasing to 585 mg per day.
as §12
Analyses: Samples for proteoglycane analysis are frozen down immediately. The samples are analyzed by Wieslab AB, IDEON, S-223 70 Lund, Sweden, by means of a method which has been described by Björnsson, S., Analytical Biochemistry 210, 282-291 (1993). The method comprises extraction by 20 microliters of 4 M guanidine-HCl, 50 Mm sodium acetate per mg wet weight over night by room temperatures. The extracts are centrifuged in order to remove debris. 20 microliters of supernatant are reduced 1/10 in extraction buffer and 20 microliters of reduced supernatant are mixed with 10 microliters of reagent 1 (see Björnsson, S., Analytical biochemistry 210, 282-291 (1993)) on a shaking table for 15 minutes. 200 microliters of reagent 2 are added and the tests are incubated for 60 minutes in order to precipitate the proteoglycanes. The proteoglycane/alcian blue precipitate is transferred to 96-wells MillBlotD apparatus and washed with 2×200 microliters of 40% DMSO, 0.05 M of MgCl2. The colour intensity of the wells are quantitated by microtech E3 scanner and Scan Analysis software (Biosoft, Cambridge, U.K.). Chrondroitine-6-sulphate (Sigma C4384) is used as the calibrator. All samples are analyzed in duplicate.
The results of longterm treatment with each of the 8 substances specified above are shown in Example 2 (treatment for 12 weeks) and Example 4 (treatment for 10 weeks).

skeletal RyR = target: T1, skeletal RyR (Oryctolagus cuniculus, UniProt P11716); settings: cited from earlier work; for Effect on [3H ryanodine binding in % compared to control: values of Table 3 without AMP/AMPPCP, caffeine represented by 1,7-dimethylxanthine; for Bound [3H]ryanodine % of control / Bound [3H]ryanodine pmol/mg protein / Bound [3H]ryanodine, % of control, +1 mmol/l AMPPCP / Bound [3H]ryanodine, % of control, +3 mmol/l AMP: xanthine […]; for Bound [3H]ryanodine % of control / Bound [3H]ryanodine pmol/mg protein: 1 mmol/l AMPPCP; for Bound [3H]ryanodine % of control / Bound [3H]ryanodine, % of control, +1 mmol/l AMPPCP / Bound [3H]ryanodine, % of control, +3 mmol/l AMP: control (-xanthine) = 100; for Bound [3H]ryanodine pmol/mg protein: means±SD of 3-4 experiments
T1 construct: Structure-activity Relationship of Xanthines and Skeletal Muscle Ryanodine Receptor/Ca^2+ Release Channel; from tissue; host or cells: Skeletal muscle
T1 sequence (P11716 whole entry): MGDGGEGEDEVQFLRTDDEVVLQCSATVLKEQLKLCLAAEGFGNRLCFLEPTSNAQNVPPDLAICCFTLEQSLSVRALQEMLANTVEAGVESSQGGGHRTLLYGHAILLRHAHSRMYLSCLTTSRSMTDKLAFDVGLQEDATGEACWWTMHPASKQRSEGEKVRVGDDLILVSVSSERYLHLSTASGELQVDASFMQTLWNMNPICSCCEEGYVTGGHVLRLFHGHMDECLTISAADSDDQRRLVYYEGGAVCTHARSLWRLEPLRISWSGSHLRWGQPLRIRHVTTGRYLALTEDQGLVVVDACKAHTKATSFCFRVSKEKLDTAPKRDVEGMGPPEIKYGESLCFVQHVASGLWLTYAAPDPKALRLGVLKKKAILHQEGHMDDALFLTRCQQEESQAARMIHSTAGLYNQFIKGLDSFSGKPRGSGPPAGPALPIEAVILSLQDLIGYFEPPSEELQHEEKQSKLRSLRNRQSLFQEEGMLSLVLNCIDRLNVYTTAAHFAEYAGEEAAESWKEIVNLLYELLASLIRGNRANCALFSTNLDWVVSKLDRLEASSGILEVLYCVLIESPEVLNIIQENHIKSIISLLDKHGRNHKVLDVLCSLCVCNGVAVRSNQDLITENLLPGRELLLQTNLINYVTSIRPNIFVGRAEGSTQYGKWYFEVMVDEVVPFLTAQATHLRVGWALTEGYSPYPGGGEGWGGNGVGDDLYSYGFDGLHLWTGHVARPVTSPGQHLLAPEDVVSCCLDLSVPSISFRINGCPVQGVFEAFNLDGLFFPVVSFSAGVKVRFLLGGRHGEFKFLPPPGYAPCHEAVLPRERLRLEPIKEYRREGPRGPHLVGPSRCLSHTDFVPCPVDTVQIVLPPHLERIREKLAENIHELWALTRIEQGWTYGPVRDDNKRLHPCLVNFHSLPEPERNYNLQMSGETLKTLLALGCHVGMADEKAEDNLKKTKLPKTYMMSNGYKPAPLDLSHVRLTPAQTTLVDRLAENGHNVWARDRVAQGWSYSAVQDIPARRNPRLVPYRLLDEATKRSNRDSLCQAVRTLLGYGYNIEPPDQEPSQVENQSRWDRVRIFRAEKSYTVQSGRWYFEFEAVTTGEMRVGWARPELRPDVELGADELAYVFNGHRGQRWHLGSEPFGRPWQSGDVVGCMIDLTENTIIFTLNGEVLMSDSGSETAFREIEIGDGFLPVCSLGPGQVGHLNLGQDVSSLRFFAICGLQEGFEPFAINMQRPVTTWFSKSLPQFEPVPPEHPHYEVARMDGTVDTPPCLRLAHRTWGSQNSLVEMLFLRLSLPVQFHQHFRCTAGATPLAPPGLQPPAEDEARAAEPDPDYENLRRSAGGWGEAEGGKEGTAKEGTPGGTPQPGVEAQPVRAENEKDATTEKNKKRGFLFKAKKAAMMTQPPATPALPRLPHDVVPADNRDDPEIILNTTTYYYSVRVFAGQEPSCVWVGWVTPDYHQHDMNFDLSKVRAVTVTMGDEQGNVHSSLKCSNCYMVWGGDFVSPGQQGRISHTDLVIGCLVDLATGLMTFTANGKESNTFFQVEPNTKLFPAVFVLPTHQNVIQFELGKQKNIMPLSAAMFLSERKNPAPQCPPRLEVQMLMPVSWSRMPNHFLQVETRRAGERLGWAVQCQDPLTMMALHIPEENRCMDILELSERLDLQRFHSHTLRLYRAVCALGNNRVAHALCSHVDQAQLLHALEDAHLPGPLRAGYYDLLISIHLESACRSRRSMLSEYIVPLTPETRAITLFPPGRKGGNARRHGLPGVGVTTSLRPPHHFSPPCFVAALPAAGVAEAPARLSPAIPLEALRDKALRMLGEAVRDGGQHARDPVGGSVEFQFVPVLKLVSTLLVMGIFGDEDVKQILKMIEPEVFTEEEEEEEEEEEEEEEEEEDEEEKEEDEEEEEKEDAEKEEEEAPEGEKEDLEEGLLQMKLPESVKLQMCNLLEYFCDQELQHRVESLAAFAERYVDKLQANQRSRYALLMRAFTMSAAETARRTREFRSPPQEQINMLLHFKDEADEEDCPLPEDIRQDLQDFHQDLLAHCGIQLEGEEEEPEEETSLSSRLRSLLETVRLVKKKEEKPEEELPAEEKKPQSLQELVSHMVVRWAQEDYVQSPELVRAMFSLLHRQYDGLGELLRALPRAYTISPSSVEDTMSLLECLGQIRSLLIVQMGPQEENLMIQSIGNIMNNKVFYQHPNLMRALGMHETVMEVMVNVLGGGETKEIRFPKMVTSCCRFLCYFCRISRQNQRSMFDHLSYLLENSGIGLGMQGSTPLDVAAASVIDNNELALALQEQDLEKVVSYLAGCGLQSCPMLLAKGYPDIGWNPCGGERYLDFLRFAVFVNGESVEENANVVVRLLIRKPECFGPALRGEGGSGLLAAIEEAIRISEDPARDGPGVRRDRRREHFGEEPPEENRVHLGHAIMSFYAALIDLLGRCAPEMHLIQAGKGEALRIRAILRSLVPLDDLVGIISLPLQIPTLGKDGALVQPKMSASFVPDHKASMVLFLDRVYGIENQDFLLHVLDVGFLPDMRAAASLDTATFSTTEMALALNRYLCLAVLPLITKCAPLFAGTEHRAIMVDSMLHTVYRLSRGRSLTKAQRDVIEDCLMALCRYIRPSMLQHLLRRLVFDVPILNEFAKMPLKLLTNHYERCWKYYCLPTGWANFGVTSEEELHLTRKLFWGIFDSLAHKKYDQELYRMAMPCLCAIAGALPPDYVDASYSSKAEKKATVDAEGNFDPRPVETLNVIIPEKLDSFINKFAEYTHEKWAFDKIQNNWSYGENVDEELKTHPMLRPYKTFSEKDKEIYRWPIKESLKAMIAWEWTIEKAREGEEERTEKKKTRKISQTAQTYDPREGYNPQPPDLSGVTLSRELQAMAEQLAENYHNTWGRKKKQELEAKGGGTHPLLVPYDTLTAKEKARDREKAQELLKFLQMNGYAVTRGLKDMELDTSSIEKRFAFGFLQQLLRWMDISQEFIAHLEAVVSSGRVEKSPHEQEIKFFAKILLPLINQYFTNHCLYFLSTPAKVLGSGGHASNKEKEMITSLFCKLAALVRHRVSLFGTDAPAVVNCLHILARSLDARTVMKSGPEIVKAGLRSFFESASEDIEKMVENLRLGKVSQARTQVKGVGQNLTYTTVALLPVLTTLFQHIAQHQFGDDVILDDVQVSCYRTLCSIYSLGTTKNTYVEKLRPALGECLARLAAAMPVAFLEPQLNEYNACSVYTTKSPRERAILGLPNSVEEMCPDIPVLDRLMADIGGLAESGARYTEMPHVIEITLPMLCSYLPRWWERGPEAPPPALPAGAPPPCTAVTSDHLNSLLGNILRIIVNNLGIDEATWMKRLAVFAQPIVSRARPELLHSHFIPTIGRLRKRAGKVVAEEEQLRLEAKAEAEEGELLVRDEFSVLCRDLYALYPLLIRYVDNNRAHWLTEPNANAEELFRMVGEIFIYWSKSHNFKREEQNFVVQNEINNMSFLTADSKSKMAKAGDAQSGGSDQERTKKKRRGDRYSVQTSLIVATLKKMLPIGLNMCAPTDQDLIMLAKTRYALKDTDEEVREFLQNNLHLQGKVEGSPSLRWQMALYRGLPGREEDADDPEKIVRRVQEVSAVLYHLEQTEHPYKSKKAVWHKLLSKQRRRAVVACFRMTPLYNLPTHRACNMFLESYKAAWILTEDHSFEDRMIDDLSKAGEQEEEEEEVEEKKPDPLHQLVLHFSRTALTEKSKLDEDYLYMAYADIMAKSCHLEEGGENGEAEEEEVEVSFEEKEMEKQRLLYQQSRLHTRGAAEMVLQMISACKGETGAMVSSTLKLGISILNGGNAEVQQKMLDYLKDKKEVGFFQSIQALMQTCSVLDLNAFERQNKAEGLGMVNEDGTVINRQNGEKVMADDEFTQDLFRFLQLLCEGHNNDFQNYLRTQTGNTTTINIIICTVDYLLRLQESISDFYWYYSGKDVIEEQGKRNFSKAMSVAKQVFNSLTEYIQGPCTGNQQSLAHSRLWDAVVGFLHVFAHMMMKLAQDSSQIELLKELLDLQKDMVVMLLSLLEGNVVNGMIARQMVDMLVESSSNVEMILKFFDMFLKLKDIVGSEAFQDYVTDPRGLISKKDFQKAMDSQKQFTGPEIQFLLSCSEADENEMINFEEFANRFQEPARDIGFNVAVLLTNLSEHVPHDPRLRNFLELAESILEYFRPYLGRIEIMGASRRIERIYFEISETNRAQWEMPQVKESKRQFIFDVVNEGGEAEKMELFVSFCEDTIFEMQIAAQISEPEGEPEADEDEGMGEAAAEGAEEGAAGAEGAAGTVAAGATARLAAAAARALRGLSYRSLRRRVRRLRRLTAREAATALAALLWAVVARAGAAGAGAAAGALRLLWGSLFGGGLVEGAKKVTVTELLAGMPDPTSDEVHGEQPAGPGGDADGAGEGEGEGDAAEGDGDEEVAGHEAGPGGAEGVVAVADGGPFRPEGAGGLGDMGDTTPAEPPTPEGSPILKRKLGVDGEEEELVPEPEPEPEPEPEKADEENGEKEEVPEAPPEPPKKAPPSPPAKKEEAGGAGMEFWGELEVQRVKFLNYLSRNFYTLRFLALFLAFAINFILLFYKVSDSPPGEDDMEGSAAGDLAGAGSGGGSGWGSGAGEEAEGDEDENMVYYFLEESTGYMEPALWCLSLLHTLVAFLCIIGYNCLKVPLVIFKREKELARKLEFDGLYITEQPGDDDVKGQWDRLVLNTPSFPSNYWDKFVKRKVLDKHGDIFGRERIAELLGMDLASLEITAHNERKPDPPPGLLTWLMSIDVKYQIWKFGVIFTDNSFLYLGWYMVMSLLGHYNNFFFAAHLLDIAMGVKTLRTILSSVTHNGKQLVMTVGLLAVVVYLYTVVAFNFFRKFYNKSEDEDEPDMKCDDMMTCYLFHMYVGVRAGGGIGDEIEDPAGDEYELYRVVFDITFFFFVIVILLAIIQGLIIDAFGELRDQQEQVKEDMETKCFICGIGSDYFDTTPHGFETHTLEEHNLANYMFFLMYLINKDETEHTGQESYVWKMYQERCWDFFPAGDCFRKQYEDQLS

sclera [3] = assay: Content of collagen specific amino acids in rabbit sclera after long term treatment (HPLC); format: in vivo; settings: dried defatted weight, 10 weeks treatment (Example 4)
[4] = posterior sclera, 10 weeks treatment (Example 4)

Compound | Content of proteoglycanes, anterior sclera (sclera [2]; 10 weeks treatment (Example 4)) | Content of proteoglycanes, posterior sclera (sclera [2]; 10 weeks treatment (Example 4)) | Hydroxylysine content (sclera [3]; anterior sclera) | Hydroxyproline content (sclera [3]; anterior sclera) | Proline content (sclera [3]; anterior sclera) | Hydroxylysine content (sclera [3]; posterior sclera) | Hydroxyproline content (sclera [3]; posterior sclera) | Proline content (sclera [3]; posterior sclera) | Hydroxylysine content (sclera [1]; anterior sclera) | Hydroxyproline content (sclera [1]; anterior sclera) | Proline content (sclera [1]; anterior sclera) | Hydroxyproline Inc. compared to the control (sclera [1]; posterior sclera) [%] | Proline Inc. compared to the control (sclera [1]; posterior sclera) [%] | Hydroxylysine content (sclera [1]; posterior sclera) | Hydroxyproline content (sclera [1]; posterior sclera) | Proline content (sclera [1]; posterior sclera) | Content of proteoglycanes, anterior sclera (sclera [2]; 3 months treatment) | Content of proteoglycanes, posterior sclera (sclera [2]; 3 months treatment) | other results
Cn1cnc2[nH]c(=O)[nH]c(=O)c21 [7-Methylxanthine] | 2.5 +/− 0.5 μg PG/mg tissue | 3.3 +/− 0.3 μg PG/mg tissue | 45 +/− 3 nanomol/mg tissue | 667 +/− 73 nanomol/mg tissue | 951 +/− 111 nanomol/mg tissue | 44 +/− 7 nanomol/mg tissue | 719 +/− 81* nanomol/mg tissue | 1018 +/− 108* nanomol/mg tissue |  |  |  |  |  |  |  |  |  |  | content of hydroxyproline and proline in posterior sclera (in words) (sclera [1]; Example 4, versus control): significantly higher content; Hydroxylysine Inc. (sclera [1]; [4]): 7%; Hydroxyproline Inc. (sclera [1]; [4]): 16%; Proline Inc. (sclera [1]; [4]): 10%; Proteoglycanes Decrease, anterior sclera (sclera [2]; 10 weeks treatment (Example 4)): 14%; Proteoglycanes Increase, posterior sclera (sclera [2]; 10 weeks treatment (Example 4)): 14%; content of proteoglycans in posterior sclera (in words) (sclera [2]): near significant increase; Effect on proteoglycan content of posterior sclera in % compared to control (sclera [2]): 114%; Effect on [3H ryanodine binding in % compared to control (skeletal RyR): 204%; Bound [3H]ryanodine % of control (skeletal RyR): 225 ± 11 % of control; Bound [3H]ryanodine pmol/mg protein (skeletal RyR): 3.80 ± 0.19 pmol/mg protein; Bound [3H]ryanodine, % of control, +1 mmol/l AMPPCP (skeletal RyR): 225 ± 11 % of control; Bound [3H]ryanodine, % of control, +3 mmol/l AMP (skeletal RyR): 214 ± 15 % of control
CC(=O)Nc1nnc(S(N)(=O)=O)s1 [Acetazolamide, acetazolamide] | 2.9 +/− 0.4 μg PG/mg tissue | 2.8 +/− 0.8 μg PG/mg tissue | 41 +/− 4 nanomol/mg tissue | 596 +/− 27* nanomol/mg tissue | 843 +/− 47* nanomol/mg tissue | 38 +/− 6 nanomol/mg tissue | 563 +/− 91 nanomol/mg tissue | 781 +/− 125 nanomol/mg tissue |  |  |  |  |  |  |  |  |  |  | content of hydroxyproline and proline in anterior sclera (in words) (sclera [1]; Example 4, versus control, significantly): reduced; Hydroxylysine Decr. (sclera [1]; [4]): 7%; Hydroxyproline Decr. (sclera [1]; [4]): 10%; Proline Decr. (sclera [1]; [4]): 10%
CNCCC(Oc1ccc(C(F)(F)F)cc1)c1ccccc1 (stereo not drawn) [Fluoxetine, fluoxetine] |  |  |  |  |  |  |  |  | 33 +/− 11 nanomol/mg tissue | 619 +/− 40 nanomol/mg tissue | 896 +/− 21 nanomol/mg tissue | 17 | 15 | 41 +/− 13 nanomol/mg tissue | 640 +/− 31 nanomol/mg tissue | 927 +/− 15 nanomol/mg tissue | 2.2 +/− 0.4* μg PG/mg tissue | 2.6 +/− 0.2 μg PG/mg tissue | Hydroxylysine Decr. compared to the control (sclera [1]; anterior sclera): 20%; Proteoglycanes Decrease compared to the control, anterior sclera (sclera [2]; 3 months treatment): 19%
N[C@@H](CSSC[C@H](N)C(=O)O)C(=O)O [L-cystine] |  |  |  |  |  |  |  |  | 45 +/− 10 nanomol/mg tissue | 599 +/− 41 nanomol/mg tissue | 885 +/− 22 nanomol/mg tissue | 9 | 7 | 43 +/− 8 nanomol/mg tissue | 596 +/− 39 nanomol/mg tissue | 867 +/− 14 nanomol/mg tissue | 3.5 +/− 0.5* μg PG/mg tissue | 3.5 +/− 0.4* μg PG/mg tissue | Proteoglycanes Increase compared to the control, anterior sclera (sclera [2]; 3 months treatment): 29%; Proteoglycanes Increase compared to the control, posterior sclera (sclera [2]; 3 months treatment): 29%
NCCC[C@H](N)C(=O)O [L-ornithine] | 3.0 +/− 1.1 μg PG/mg tissue | 3.0 +/− 0.9 μg PG/mg tissue | 37 +/− 4 nanomol/mg tissue | 605 +/− 37 nanomol/mg tissue | 875 +/− 48 nanomol/mg tissue | 38 +/− 5 nanomol/mg tissue | 611 +/− 24 nanomol/mg tissue | 871 +/− 35 nanomol/mg tissue |  |  |  |  |  |  |  |  |  |  | Hydroxylysine Decr. (sclera [1]; [4]): 7%
Cn1c(=O)c2[nH]cnc2n(C)c1=O.Cn1c(=O)c2[nH]cnc2n(C)c1=O.NCCN [Teofylamin] |  |  |  |  |  |  |  |  | 28 +/− 10 nanomol/mg tissue | 653 +/− 39 nanomol/mg tissue | 958 +/− 23 nanomol/mg tissue | 18 | 11 | 28 +/− 15 nanomol/mg tissue | 643 +/− 74 nanomol/mg tissue | 902 +/− 53 nanomol/mg tissue | 2.4 +/− 0.5 μg PG/mg tissue | 2.7 +/− 0.3 μg PG/mg tissue | Hydroxylysine Decr. compared to the control (sclera [1]; anterior sclera): 32%; Hydroxyproline Inc. compared to the control (sclera [1]; anterior sclera): 8%; Proline Inc. compared to the control (sclera [1]; anterior sclera): 8%; Hydroxylysine Decr. compared to the control (sclera [1]; posterior sclera): 35%; Proteoglycanes Decrease compared to the control, anterior sclera (sclera [2]; 3 months treatment): 11%
Cn1cnc2c1c(=O)[nH]c(=O)n2C [Theobromine, 3,7-Dimethylxanthine] | 2.6 +/− 0.7 μg PG/mg tissue | 2.5 +/− 0.4 μg PG/mg tissue | 49 +/− 6 nanomol/mg tissue | 751 +/− 53* nanomol/mg tissue | 1073 +/− 78* nanomol/mg tissue | 49 +/− 4* nanomol/mg tissue | 741 +/− 18* nanomol/mg tissue | 1029 +/− 45* nanomol/mg tissue |  |  |  |  |  |  |  |  |  |  | content of all collagen specific amino acids, except hydroxylysine in anterior sclera (in words) (sclera [1]; all sclera samples, Example 4, versus control): Significant higher content; Hydroxylysine Inc. (sclera [1]; [4]): 20%; Hydroxyproline Inc. (sclera [1]; [4]): 19%; Proline Inc. (sclera [1]; [4]): 20%; Proteoglycanes Decrease, anterior sclera (sclera [2]; 10 weeks treatment (Example 4)): 10%; Proteoglycanes Decrease, posterior sclera (sclera [2]; 10 weeks treatment (Example 4)): 14%; content of proteoglycans in posterior sclera (in words) (sclera [2]): decrease; Effect on proteoglycan content of posterior sclera in % compared to control (sclera [2]): 86%; Effect on [3H ryanodine binding in % compared to control (skeletal RyR): 124%; Bound [3H]ryanodine % of control (skeletal RyR): 160 ± 22 % of control; Bound [3H]ryanodine pmol/mg protein (skeletal RyR): 2.70 ± 0.37 pmol/mg protein; Bound [3H]ryanodine, % of control, +1 mmol/l AMPPCP (skeletal RyR): 160 ± 22 % of control; Bound [3H]ryanodine, % of control, +3 mmol/l AMP (skeletal RyR): 136 ± 8 % of control
